{"source": "paper PMC10571957", "about": "“αV-Integrin-Dependent Inhibition of Glioblastoma Cell Migration, Invasion and Vasculogenic Mimicry by the uPAcyclin Decapeptide” (Cancers, 2023)", "key": {"[1]": {"tested_on": "U87-MG cells", "assay": "Cell viability/proliferation (Trypan blue, MTT), U87-MG", "format": "cell-based, human", "conditions": "1 nM or 100 nM, 72–96 h", "description": "(§1) Cell viability was tested in DMEM/10% FBS, in the presence of 1 nM or 100 nM uPAcyclin, either by Trypan blue exclusion or by thiazolyl blue tetrazolium bromide (MTT) assays, as specified in the figure legends. For the Trypan blue assay, 4 × 10^4 U87-MG, U251-MG, U138-MG, and C6 cells/sample were grown in 12-well plates, and followed for 24, 48 and 72 h. As a negative control, the cells were grown in a serum-free medium. Then, the cells were detached, stained with a 0.2% (w/v) Trypan blue solution, counted using a Burker chamber (T0 = 100%), and reported as number of viable cells/total.\nFor the MTT assay, 5 × 10^3 U87-MG and C6 cells/well were grown in 96-well plates for 24 h and tested as previously described. Briefly, MTT (Invitrogen-Life Technologies, Eugene, OR, USA) 5 mg/mL in a PBS solution was added to wells at a 10% final concentration, and incubated for 3 h at 37 °C, followed by the addition of stop solution (100 µL of DMSO/well) for 1 h at room temperature. Then, the optical densities were measured at 495 nm using the Microplate Reader (Synergy HT, Bio-Tek, Winoosky, VT, USA). The cell viability rate was calculated as a percentage by reporting the mean absorbance of treated groups to control groups, as follows: Cell viability rate (%) = (Atreated group/Acontrol group) × 100."}, "[2]": {"tested_on": "cancer-associated fibroblasts (CAFs) from breast cancer patients", "conditions": "ref [30]; cited from earlier work", "source_text": "Thus, in the present work, we investigated the effects of the anti-migratory uPAcyclin decapeptide, binding to the αV integrin subunit. This cyclic decapeptide is derived from a non-catalytic region of the human urokinase (uPA) plasminogen activator. The growth factor domain (GFD, residues 1–49) and the connecting peptide region (CP, residues 132–158) confer to the full uPA a clearcut motogen activity. While the GFD binds to the urokinase receptor (uPAR), the CP region binds to the αV integrin subunit."}, "[3]": {"tested_on": "U251-MG cells", "assay": "Cell viability/proliferation (Trypan blue), U251-MG", "format": "cell-based, human", "conditions": "1 nM or 100 nM, 72–96 h", "description": "as §1"}, "[4]": {"tested_on": "VE-cadherin", "assay": "VE-cadherin expression in matrix-recovered U251-MG cells (Western blot)", "format": "cell-based, human", "conditions": "1 µM uPAcyclin, VM-forming U251-MG, 24 h", "source_text": "Whole cells were lysed as described, and resolved by SDS-PAGE, followed by Western blotting with PVDF membranes (Millipore, Burlington, MA, USA). The filters were probed with the following antibodies: polyclonal anti-VE Cadherin (Bioss Antibodies, Woburn, MA, USA), polyclonal anti-αV (Millipore), polyclonal anti-GAPDH (Elabscience, Houston, TX, USA), and polyclonal anti-actin (Sigma-Aldrich, St. Louis, MO, USA). Then, goat anti-rabbit IgG-HRP (Sigma) or goat anti-mouse IgG-HRP (Santa Cruz Biotechnology, Dallas, TX, USA) were employed as secondary antibodies. […] Films were imaged using the CanoScan 4400F (Canon, Tokyo, Japan) at 300 dpi, with the Adobe Photoshop Creative Suite 2 or CS2, and bands were quantified with the ImageJ 1.52a software (NIH, Bethesda, MD, USA).\nTo analyze matrix-embedded U251-MG cells, cells undergoing VM for 24 h were extracted using a 2× mixture of Trypsin, Accutase, and Dispase (1:1:1), acting for 45 min at 37 °C. […] The supernatants were collected and the protein concentration was quantified using the Bradford assay (Biorad, Hercules, CA, USA).\nFigure 8 Vascular mimicry formation and VE-cadherin expression inhibited by uPAcyclin in U251-MG cells. […] (B) The quantitation of the branching point number is described in the legend to Figure 6B. […] The densitometric quantitation of VE-cadherin bands is shown (right panel) (* p-value < 0.05; *** p-value < 0.001)."}}}
{"substance": "Ac-K^1P[ESPPEELK^10]-NH2 (sidechain bridge or staple) [uPAcyclin]", "values": [{"measurement": "proliferation/viability", "setting": "[1]", "result": "unaffected by uPAcyclin, regardless of the concentration employed"}, {"measurement": "pro-invasive ability of CAFs", "setting": "[2]", "result": "inhibited the pro-invasive ability of cancer-associated fibroblasts"}, {"measurement": "proliferation/viability", "setting": "[3]", "result": "unaffected by uPAcyclin, regardless of the concentration employed"}, {"measurement": "VE-cadherin expression", "setting": "[4]", "result": "markedly reduced"}]}
